Experimental data: US20220306630A1, “AGONISTS OF ROR GAMMAt” (BRISTOL-MYERS SQUIBB COMPANY, priority 2019, published 2022)

What follows are compounds tested against T1, RORgT (Homo sapiens, UniProt P51449) (assay: RORgT Gal4 Luciferase Reporter Gene Assay). Settings: engineered Jurkat cells overexpressing RORgT (LBD or full length) with Gal4 Luc reporter; 18 hours at 37° C.; 40 μM to 0.67 nM; read-out: RORg_GAL4 EC50.
T1 construct: Gal4 (fusion partner); expressed in transfected cells; host or cells: engineered Jurkat cells (Jurkat pEx/Gal/hRORγ CLBD/HYG pG5luc/blast)
T1 sequence (P51449 267-516): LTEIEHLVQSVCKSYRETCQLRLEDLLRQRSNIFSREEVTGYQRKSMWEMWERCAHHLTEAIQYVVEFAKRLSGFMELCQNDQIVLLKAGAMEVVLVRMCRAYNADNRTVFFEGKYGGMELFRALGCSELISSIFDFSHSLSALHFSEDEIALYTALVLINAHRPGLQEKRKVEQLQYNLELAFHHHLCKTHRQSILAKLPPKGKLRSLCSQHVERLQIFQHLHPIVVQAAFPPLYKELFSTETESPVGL
Type: cell-based
Protocol: The compound and the cells were incubated for 18 hours at 37° C. in a cell culture incubator. Cells were then lysed with 15 uL of Steady-Glo Luciferase Assay reagent (Promega EZ550), followed by centrifuging the assay plates at 1500 RPM for 1 minute. Subsequently, the plates were read on the Envision (PerkinElmer). The inhibition of constitutive activity of RORgT achieved by graded concentrations of compound was calculated as a percentage of the luminescence signal window reduction over a control compound.
Work on COc1ccc(Oc2c(Cl)cc(NC(=O)Cc3cccnc3)cc2Cl)cc1C1CC1 [Example 37, N-(3,5-dichloro-4-(3-cyclopropyl-4-methoxyphenoxy)phenyl)-2-(pyridin-3-yl)acetamide] yielded an EC50 of 1120 nM.
COc1ccc(Oc2c(Cl)cc(NC(=O)Cc3ccc(S(C)(=O)=O)cc3)cc2Cl)cc1C(C)C [Example 38, N-(3,5-dichloro-4-(3-isopropyl-4-methoxyphenoxy)phenyl)-2-(4-(methylsulfonyl)phenyl)acetamide] gave an EC50 of 30 nM.
Work on COc1ccc(Oc2c(F)cc(NC(=O)Cc3cccnc3)cc2F)cc1C1CC1 [Example 39, N-(4-(3-cyclopropyl-4-methoxyphenoxy)-3,5-difluorophenyl)-2-(pyridin-3-yl)acetamide] yielded an EC50 of 3130 nM.
For COc1ccc(Oc2c(F)cc(NC(=O)Cc3cccnc3)cc2F)cc1C(C)C [Example 40, N-(3,5-difluoro-4-(3-isopropyl-4-methoxyphenoxy)phenyl)-2-(pyridin-3-yl)acetamide], the EC50 was 2450 nM.
Work on COc1ccc(Oc2c(Cl)cc(NC(=O)C[C@H]3CCCN(S(C)(=O)=O)C3)cc2Cl)cc1C(C)C [Example 44, (R)—N-(3,5-dichloro-4-(3-isopropyl-4-methoxyphenoxy)phenyl)-2-(1-(methylsulfonyl)piperidin-3-yl)acetamide] yielded an EC50 of 120 nM.
With COc1ccc(Oc2c(Cl)cc(NC(=O)CC3CCN(S(C)(=O)=O)CC3)cc2Cl)cc1C(C)C [Example 45, N-(3,5-dichloro-4-(3-isopropyl-4-methoxyphenoxy)phenyl)-2-(1-(methylsulfonyl)piperidin-4-yl)acetamide] the EC50 was 18 nM.
COc1ccc(Oc2c(Cl)cc(NC(=O)CC3CCN(S(N)(=O)=O)CC3)cc2Cl)cc1C(C)C [Example 46, N-(3,5-dichloro-4-(3-isopropyl-4-methoxyphenoxy)phenyl)-2-(1-sulfamoylpiperidin-4-yl)acetamide] was tested, and the EC50 was 438 nM.
In the case of COc1ccc(Oc2c(Cl)cc(NC(=O)CN3CCN(S(N)(=O)=O)CC3)cc2Cl)cc1C(C)C [Example 48, N-(3,5-dichloro-4-(3-isopropyl-4-methoxyphenoxy)phenyl)-2-(4-sulfamoylpiperazin-1-yl)acetamide], the EC50 is reported as 105 nM.
Cc1ccc(Oc2c(Cl)cc(NC(=O)Cc3cccnc3)cc2Cl)cc1C(C)C [Example 49, N-(3,5-dichloro-4-(3-isopropyl-4-methylphenoxy)phenyl)-2-(pyridin-3-yl)acetamide] was tested, and the EC50 was 344 nM.
CCOc1ccc(Oc2c(Cl)cc(NC(=O)Cc3cccnc3)cc2Cl)cc1C(C)C [Example 50, N-(3,5-dichloro-4-(4-ethoxy-3-isopropylphenoxy)phenyl)-2-(pyridin-3-yl)acetamide] was tested, and the EC50 was 75 nM.
CC1(c2cc(F)cc(Oc3c(Cl)cc(NC(=O)CC4CCN(S(C)(=O)=O)CC4)cc3Cl)c2)CC1 [Example 51, N-(3,5-dichloro-4-(3-fluoro-5-(1-methylcyclopropyl)phenoxy)phenyl)-2-(1-(methylsulfonyl)piperidin-4-yl)acetamide] gave an EC50 of 1.7 nM.
Compound CC1(c2cc(F)cc(Oc3c(Cl)ccc(C(=O)NCC4CCN(S(C)(=O)=O)CC4)c3Cl)c2)CC1 [Example 52, 2,4-dichloro-3-(3-fluoro-5-(1-methylcyclopropyl)phenoxy)-N-((1-(methylsulfonyl)piperidin-4-yl)methyl)benzamide] has an EC50 of 28 nM.
CC(C)(F)c1cc(F)cc(Oc2c(Cl)cc(NC(=O)Cc3cccc(S(C)(=O)=O)c3)cc2Cl)c1 [Example 53, N-(3,5-dichloro-4-(3-fluoro-5-(2-fluoropropan-2-yl)phenoxy)phenyl)-2-(3-(methylsulfonyl)phenyl)acetamide] gave an EC50 of 40 nM.
COc1ccc(Oc2c(Cl)ccc(CNC(=O)Cc3ccc(S(C)(=O)=O)cc3)c2Cl)cc1C(C)C [Example 54] gave an EC50 of 34 nM.
With COc1ccc(Oc2c(Cl)ccc(CNS(=O)(=O)C3CCN(S(C)(=O)=O)CC3)c2Cl)cc1C(C)C [Example 57] the EC50 was 16 nM.
With COc1ccc(Oc2c(Cl)ccc(NC(=O)CC3CN(S(C)(=O)=O)C3)c2Cl)cc1C(C)C [Example 58] the EC50 was 383 nM.
Work on COc1ccc(Oc2c(Cl)ccc(CNC(=O)c3ccc(S(N)(=O)=O)cc3)c2Cl)cc1C(C)C [Example 60] yielded an EC50 of 139 nM.
Work on COc1ccc(Oc2c(Cl)ccc(NC(=O)Cc3ccc(S(N)(=O)=O)cc3)c2Cl)cc1C(C)C [Example 61] yielded an EC50 of 46 nM.
Compound COc1ccc(Oc2c(Cl)ccc(CNC(=O)c3ccc(S(C)(=O)=O)cc3Cl)c2Cl)cc1C(C)C [Example 62] has an EC50 of 96 nM.
COc1ccc(Oc2c(Cl)ccc(CNC(=O)C3CCN(S(N)(=O)=O)CC3)c2Cl)cc1C(C)C [Example 63] showed an EC50 of 31 nM.
For COc1ccc(Oc2c(Cl)ccc(C(=O)N(C)CC3(O)CCN(S(C)(=O)=O)CC3)c2Cl)cc1C(C)C [Example 64], the EC50 was 23 nM.
COc1ccc(Oc2c(Cl)ccc(C(=O)N3CCN(S(C)(=O)=O)CC3)c2Cl)cc1C(C)C [Example 65] gave an EC50 of 69 nM.
Work on COc1ccc(Oc2c(Cl)ccc(N(C)C(=O)C(C)c3ccc(S(C)(=O)=O)cc3)c2Cl)cc1C(C)C (centres unmarked) [Example 66] yielded an EC50 of 268 nM.
With COc1ccc(Oc2c(Cl)ccc(C(=O)N(C)Cc3ccc(S(C)(=O)=O)cc3)c2Cl)cc1C(C)C [Example 67] the EC50 was 116 nM.
With COc1ccc(Oc2c(Cl)ccc(C(=O)N3CC4(CCN(S(C)(=O)=O)CC4)C3)c2Cl)cc1C(C)C [Example 68] the EC50 was 15 nM.
With COc1ccc(Oc2c(Cl)ccc(C(=O)NC[C@H]3CC[C@H](C(=O)OC)CC3)c2Cl)cc1C(C)C [Example 69] the EC50 was 481 nM.
With COc1ccc(Oc2c(Cl)ccc(C(=O)NC[C@H]3CC[C@H](C(=O)O)CC3)c2Cl)cc1C(C)C [Example 70] the EC50 was 141 nM.
For C=C(C)c1cc(Oc2c(Cl)ccc(C(=O)NCC3CCN(S(C)(=O)=O)CC3)c2Cl)cnc1OC [Example 71], the EC50 was 15 nM.
COc1ncc(Oc2c(Cl)ccc(C(=O)NCC3CCN(S(C)(=O)=O)CC3)c2Cl)cc1C(C)C [Example 72] gave an EC50 of 33 nM.
Compound C=C(C)c1cc(Oc2c(Cl)cc(NC(=O)CC3CCN(S(C)(=O)=O)CC3)cc2Cl)cnc1OC [Example 73] has an EC50 of 18 nM.
With COc1ncc(Oc2c(Cl)cc(NC(=O)CC3CCN(C(=O)C(F)(F)F)CC3)cc2Cl)cc1C(C)C [Example 74] the EC50 was 49 nM.
CC(C)c1cc(F)cc(Oc2c(Cl)ccc(NC(=O)Cc3ccc(S(C)(=O)=O)cc3)c2Cl)c1 [Example 75] showed an EC50 of 33 nM.
For COc1ccc(Oc2c(Cl)ccc(C(=O)NCCc3cccnc3)c2Cl)cc1C(C)C [Example 76], the EC50 was 922 nM.
COC(=O)CNC(=O)c1ccc(Cl)c(Oc2ccc(OC)c(C(C)C)c2)c1Cl [Example 77] showed an EC50 of 953 nM.
With COc1ccc(Oc2c(Cl)ccc(C(=O)N(C)C)c2Cl)cc1C(C)C [Example 78] the EC50 was 1050 nM.
With COc1ccc(Oc2c(Cl)ccc(C(=O)NCc3ccc(S(C)(=O)=O)cc3)c2Cl)cc1C(C)C [Example 79] the EC50 was 18 nM.
In the case of COc1ccc(Oc2c(Cl)ccc(C(=O)NCCCn3ccnc3)c2Cl)cc1C(C)C [Example 80], the EC50 is reported as 287 nM.
COc1ccc(Oc2c(Cl)ccc(C(=O)NCCCCO)c2Cl)cc1C(C)C [Example 81] was tested, and the EC50 was 1310 nM.
COc1ccc(Oc2c(Cl)ccc(C(=O)NCc3cccc(S(C)(=O)=O)c3)c2Cl)cc1C(C)C [Example 82] showed an EC50 of 7600 nM.
COc1ccc(Oc2c(Cl)ccc(C(=O)NCCN3CCCC3=O)c2Cl)cc1C(C)C [Example 83] gave an EC50 of 1170 nM.
For COc1ccc(Oc2c(Cl)ccc(C(=O)NCCC3CCS(=O)(=O)CC3)c2Cl)cc1C(C)C [Example 84], the EC50 was 152 nM.
Work on COc1ccc(Oc2c(Cl)ccc(C(=O)NCC3CCN(S(C)(=O)=O)CC3)c2Cl)cc1C(C)C [Example 86] yielded an EC50 of 12 nM.
COc1ccc(Oc2c(Cl)ccc(CNC(=O)Cc3cccc(S(C)(=O)=O)c3)c2Cl)cc1C(C)C [Example 87] showed an EC50 of 541 nM.
In the case of COc1ccc(Oc2c(Cl)ccc(CNC(=O)C3CN(S(C)(=O)=O)C3)c2Cl)cc1C(C)C [Example 88], the EC50 is reported as 24 nM.
In the case of COc1ccc(Oc2c(Cl)ccc(CNC(=O)CN3CCNCC3)c2Cl)cc1C(C)C [Example 89], the EC50 is reported as 4080 nM.
Compound COc1ccc(Oc2c(Cl)ccc(CNC(=O)CN3CCN(S(N)(=O)=O)CC3)c2Cl)cc1C(C)C [Example 90] has an EC50 of 13 nM.
In the case of COc1ccc(Oc2c(Cl)ccc(C(=O)NCC3CN(S(C)(=O)=O)C3)c2Cl)cc1C(C)C [Example 91], the EC50 is reported as 88 nM.
Work on COc1ccc(Oc2c(Cl)ccc(C(=O)NCC3CCN(S(=O)(=O)C4CC4)CC3)c2Cl)cc1C(C)C [Example 92] yielded an EC50 of 24 nM.
With COc1ccc(Oc2c(Cl)ccc(C(=O)NCC3CCN(S(=O)(=O)C(C)C)CC3)c2Cl)cc1C(C)C [Example 93] the EC50 was 167 nM.
In the case of CCS(=O)(=O)N1CCC(CNC(=O)c2ccc(Cl)c(Oc3ccc(OC)c(C(C)C)c3)c2Cl)CC1 [Example 94], the EC50 is reported as 26 nM.
For COc1ccc(Oc2c(Cl)ccc(CNC(=O)C3CCN(S(=O)(=O)C(C)C)CC3)c2Cl)cc1C(C)C [Example 95], the EC50 was 24 nM.
COc1ccc(Oc2c(Cl)ccc(C(=O)NCC3CCN(S(N)(=O)=O)CC3)c2Cl)cc1C(C)C [Example 96] was tested, and the EC50 was 13 nM.
Compound COc1ccc(Oc2c(Cl)ccc(CNC(=O)C3CCN(S(=O)(=O)C4CC4)CC3)c2Cl)cc1C(C)C [Example 97] has an EC50 of 14 nM.
Compound COc1ccc(Oc2c(Cl)ccc(CNS(=O)(=O)C3CCN(S(N)(=O)=O)CC3)c2Cl)cc1C(C)C [Example 98] has an EC50 of 20 nM.
For COc1ccc(Oc2c(Cl)ccc(C(=O)NCc3ccc(S(=O)(=O)N(C)C)nc3)c2Cl)cc1C(C)C [Example 99], the EC50 was 153 nM.
Compound COc1ccc(Oc2c(Cl)ccc(C(=O)NCC3CCS(=O)(=O)CC3)c2Cl)cc1C(C)C [Example 100] has an EC50 of 117 nM.
